Results from patent publication US20230123585A1, “COMPOSITIONS AND METHODS FOR TREATING OR PREVENTING CANCER USING DEUBIQUITINASE INHIBITORS” (The University of Chicago, priority 2020, published 2023).

Legend:
[1] = system: pluripotency transcripts in R-WT mESCs; assay: Turnover of m^6A-labeled pluripotency transcripts by qPCR after actinomycin D in mESCs; assay type: cell-based, mouse; details: 10 μM PD0325901, 5 μg/ml actinomycin D
Source text: FIGS. 4A-4E: Phosphorylation of METTL3/WTAP by ERK Facilitates Resolution of Pluripotency. (A) LC-MS/MS quantification of the m^6A/A ratio in mRNA of mESC stable transfectants. (B) Representative flow cytometry analyses of mESC stable transfectants for the activity of alkaline phosphatase (AP) and expression of stage-specific embryonic antigen-1 (SSEA-1). (C) qPCR analysis of pluripotency genes in R-3A2A versus R-WT mESCs. (D) Relative levels of Nanog, measured by qPCR, at the indicate times after 5 μg/ml actinomycin D treatment. mRNA levels were monitored in R-WT (black), R-WT with 10 μM PD0325901 (green), and R-3A2A (red) mESC. (E) qPCR analysis for pluripotency and differentiation markers expression after 8 days of embryonic body (EB) induction. Error bars indicated SD (n=3). (See also FIG. 12.)
FIGS. 12A-12I: Phosphorylation of METTL3/WTAP by ERK Facilitates Resolution of Pluripotency. (A) Representative phase-contrast microscopy showing colony size of R-3A2A versus R-WT mESC cells. (B) Cell growth of R-WT and R-3A2A mESCs were measured by sulforhodamine B dye (SRB assay). […] (D-H) Relative levels of Zfp42, Klf2, Sox2, Lefty1, and Pou5f 1, measured by qPCR, at the indicate times after 5 μg/ml actinomycin D treatment. mRNA levels were monitored in R-WT (black), R-WT with 10 μM PD0325901 (green), and R-3A2A (red) mESCs. […]

mRNA m^6A in A375 cells = assay: LC-MS/MS quantification of the m^6A/A ratio in mRNA of A375 cells; assay type: cell-based, human; details: A375 melanoma cells, 48 h, 10 μM PD0325901 or 0.1 μM trametinib
Protocol: FIGS. 6A-6H: Phosphorylation of the m^6A Methyltransferase Complex May Affect Tumorigenesis. (A) Lysates of A375 stable transfectants harvested at different time points after treatment with cycloheximide (CHX) 10 μg/ml were analyzed by immunoblot. (B) LC-MS/MS quantification of the m^6A/A ratio in mRNA of A375 stable transfectants. (C) After 8 h treatment with 10 μM PD0325901 or 0.1 μM tramentib, cell lysates from A375 cells were analyzed by immunoblot. (D) LC-MS/MS quantification of the m^6A/A ratio in mRNA of A375 cells treated with 10 μM PD0325901 or 0.1 μM tramentib for 48 h. (E) After 8hr treatment with 10 μM EOAI3402143 (EOAI) or 30 μM vialinin A , cell lysates from A375 cells were analyzed by immunoblot. […] (H) LC-MS/MS quantification of the m^6A/A ratio in mRNA of SKBR3 and BT474 cells treated with 1 μM tucatinib and 1 μM lapatinib for 48 h. […]
LC-MS/MS quantification of m^6A in poly(A) RNA. mRNA was extracted from the total RNA using 2 rounds of the Dynabeads mRNA purification kit. […] The nucleosides were quantified by using the nucleoside-to-base ion mass transitions of 282 to 150 (m^6A) and 268 to 136 (A). Quantification was carried out by comparison with a standard curve obtained from pure nucleoside. The ratio of m^6A to A was calculated based on the calibrated concentrations (Liu et al., 2018).

SMILES: O=C(NOC[C@H](O)CO)c1ccc(F)c(F)c1Nc1ccc(I)cc1F [PD0325901]
- turnover of m^6A-labeled pluripotency transcripts after transcription arrest [1]: delayed turnover
- overall mRNA m^6A levels (m^6A/A ratio) (mRNA m^6A in A375 cells): reduce
